# Patent US6482799B1, “Self-preserving multipurpose ophthalmic solutions incorporating a polypeptide antimicrobial” (The Regents of the University of California, priority 1999, dated 2002)
# Experiments:
# [1] = system: Pseudomonas aeruginosa (ATCC 27853); assay: Protocol 1 kill curve / MIC, 1 hour at 37° C. in glass tubes; type: cell-based
# Protocol: (§1) This protocol is used to develop dose-response (kill) curves to calculate the minimal inhibitory concentration of an indolicidin (e.g., L-indolicidin (L-IND)) when formulated in a commercially available phosphate buffered saline (PBS) solution. In addition, for comparative purposes, kill curves are established for the following three commonly available commercial lens-care products containing different preservatives:
# An initial dose range experiment is performed to determine a suitable dose range for the final experiment. The indolicidin (e.g., L-IND) is tested in the preliminary toxicity experiment at 13 different dose levels in a range between 500 μg/ml and 0.125 μg/ml. The 3 control samples with preservatives are tested at 13 different dose levels with the highest dose level representing the undiluted solution. […]
# (§2) Viable counts of the bacteria are performed by 10-fold serial dilutions in sterile PBS and by plating 0.1 ml aliquots on nutrient agar plates. […] The plates are incubated overnight at 37° C. and colonies are counted and recorded. […]
# (§3) Survival is expressed as number of surviving bacteria (CFU/ml) for each dilution of the test article and control solutions. The lowest dose of the test article that results in complete kill of the test organism, compared to the non-exposed control, is determined to be the MIC value. […]
# S. aureus (ATCC 6538) = assay: Protocol 1 kill curve / MIC, 1 hour at 37° C.; type: cell-based, Staphylococcus aureus; conditions: 10 mM sodium phosphate buffer
# Protocol: as §1
# The stock solutions are diluted in a 2-fold fashion by transferring 1 ml of each stock solution to 1 ml of appropriate diluent in sterile glass tubes (100×13 mm). Twelve additional 2-fold dilutions are made by transferring 1 ml aliquots of each dilution to 1 ml diluent. The diluent for all commercial lens-care products is PBS. […]
# as §2, §3
# [2] = system: Staphylococcus aureus 502A; assay: Dose response of antimicrobial activity in 10 mM sodium phosphate buffer; type: cell-based; conditions: 10 μg/mL indolicidin, 2 hours, 10 mM sodium phosphate buffer pH 7.4, 37° C., 2×10^6 CFU
# Protocol: The time course and dose-dependence of the antimicrobial activity of an antimicrobial peptide can be determined by incubating a microorganism with the antimicrobial peptide and determining the viability after various times of incubation or after treatment with various concentrations of the antimicrobial peptide.
# Exemplary assays using indolicidin and indolicidin analogs were performed in 10 mM sodium phosphate buffer, pH 7.4, at 37° C., as described by Selsted et al. (1985) Infect. Immun. 45:150-154, which is incorporated herein by reference.
# The dose response of a gram negative bacterial strain, Escherichia coli ML35, and a gram positive bacterial strain, Staphylococcus aureus 502A, to indolicidin was determined by incubating 2×10^6 colony forming units (CFU) of log phase bacteria with 0-25 μg/mL of indolicidin for two hours. Following incubation, the cultures were serially diluted and plated on nutrient agar. Viability of both gram negative and gram positive bacteria was reduced by at least four orders of magnitude in incubations containing 10 μg/mL of indolicidin. E. coli was more susceptible than S. aureus, as >95% of the input cells were killed after 2 hr incubation with 2.5 μg/mL indolicidin. The indolicidin diluent, 0.01% acetic acid, had no effect on either bacterial strain.
smiles,measurement,setting,value
"CC[C@H](C)[C@H](N)C(=O)N[C@@H](CC(C)C)C(=O)N1CCC[C@H]1C(=O)N[C@@H](Cc1c[nH]c2ccccc12)C(=O)N[C@@H](CCCCN)C(=O)N[C@@H](Cc1c[nH]c2ccccc12)C(=O)N1CCC[C@H]1C(=O)N[C@@H](Cc1c[nH]c2ccccc12)C(=O)N[C@@H](Cc1c[nH]c2ccccc12)C(=O)N1CCC[C@H]1C(=O)N[C@@H](Cc1c[nH]c2ccccc12)C(=O)N[C@@H](CCCNC(=N)N)C(=O)N[C@@H](CCCNC(=N)N)C(N)=O [L-indolicidin, H2N-ILPWKWPWWPWRR-CONH2]",survival,"[1]; all dose levels 100-6.25 μg/ml, 10 mM phosphate buffer pH 7.4, 2.01×10^5 CFU/ml",100%
same,survival,"[1]; all dose levels 5,000-1.25 μg/ml in PBS, 1 hour 37° C., 5.9×10^5 CFU/ml",100%
same,log kill,S. aureus (ATCC 6538); 6.25 μg/ml,~3 log
same,survival,"S. aureus (ATCC 6538); 100, 50, 25 and 12.5 μg/ml, 4.1×10^5 CFU/ml",no detectable survival
same,Viability reduction,[2],at least four
